Results published in PMC12693419, “Design, Synthesis, Biological Evaluation, and In Silico Studies of Novel Multitarget Cinnamic Acid Hybrids” (Molecules, 2025).

How the values were obtained:
bovine serum albumin = target: T1, bovine serum albumin (Bos taurus, UniProt P02769); assay: In vitro inhibition of albumin denaturation; conditions: heat denaturation, 60 °C 10 min
T1 construct: bovine serum albumin solution (fraction V); purchased Merck and Sigma-Aldrich; host or cells: bovine serum (fraction V)
T1 sequence (P02769 25-607): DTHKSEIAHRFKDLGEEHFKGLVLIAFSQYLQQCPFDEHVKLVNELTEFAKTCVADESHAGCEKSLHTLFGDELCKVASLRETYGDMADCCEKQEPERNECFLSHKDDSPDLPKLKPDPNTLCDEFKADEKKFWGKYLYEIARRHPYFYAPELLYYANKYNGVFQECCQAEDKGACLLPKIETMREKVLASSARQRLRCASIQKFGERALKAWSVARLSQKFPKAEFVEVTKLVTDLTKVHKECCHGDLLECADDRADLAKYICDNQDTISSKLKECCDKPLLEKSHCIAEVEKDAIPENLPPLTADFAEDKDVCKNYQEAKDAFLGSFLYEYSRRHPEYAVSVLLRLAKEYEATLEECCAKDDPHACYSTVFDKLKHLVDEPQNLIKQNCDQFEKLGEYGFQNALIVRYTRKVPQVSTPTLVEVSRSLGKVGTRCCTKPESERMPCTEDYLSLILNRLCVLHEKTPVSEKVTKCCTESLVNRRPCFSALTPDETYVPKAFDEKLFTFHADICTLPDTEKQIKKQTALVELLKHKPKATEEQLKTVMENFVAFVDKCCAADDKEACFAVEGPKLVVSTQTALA
Method: The ability of a compound to inhibit the thermal denaturation of albumin is considered an indicator of anti-inflammatory activity. Heat exposure simulates conditions of cellular stress or inflammation, during which protein and tissue damage occur. Certain substances can protect proteins from denaturation upon heating by stabilizing their structure and preventing aggregation and precipitation.
Inhibition of albumin denaturation was measured following the reported method. In a test tube, 1 mL of bovine serum albumin solution (fraction V, 1% w/v in phosphate buffer, pH 7.4) and 100 μL of the test compound solution were added sequentially. The mixture was incubated at 37 °C for 15 min, followed by heating at 60 °C for 10 min. After cooling to room temperature, the absorbance was measured at 660 nm. DMSO was used as the blank, and the results were compared to acetylsalicylic acid, which served as the reference compound (Table 6).

[1] = target: T2, soybean lipoxygenase isoenzyme-1 (SLOX-1) (Glycine max, UniProt P08170); assay: In vitro inhibition of soybean lipoxygenase; format: biochemical; conditions: for LOX Inh. IC50: pH 9.0; for IC50: pH 9.0, read-out: LOX Inh. IC50
T2 construct: purchased Merck and Sigma-Aldrich
T2 sequence (P08170 1-839): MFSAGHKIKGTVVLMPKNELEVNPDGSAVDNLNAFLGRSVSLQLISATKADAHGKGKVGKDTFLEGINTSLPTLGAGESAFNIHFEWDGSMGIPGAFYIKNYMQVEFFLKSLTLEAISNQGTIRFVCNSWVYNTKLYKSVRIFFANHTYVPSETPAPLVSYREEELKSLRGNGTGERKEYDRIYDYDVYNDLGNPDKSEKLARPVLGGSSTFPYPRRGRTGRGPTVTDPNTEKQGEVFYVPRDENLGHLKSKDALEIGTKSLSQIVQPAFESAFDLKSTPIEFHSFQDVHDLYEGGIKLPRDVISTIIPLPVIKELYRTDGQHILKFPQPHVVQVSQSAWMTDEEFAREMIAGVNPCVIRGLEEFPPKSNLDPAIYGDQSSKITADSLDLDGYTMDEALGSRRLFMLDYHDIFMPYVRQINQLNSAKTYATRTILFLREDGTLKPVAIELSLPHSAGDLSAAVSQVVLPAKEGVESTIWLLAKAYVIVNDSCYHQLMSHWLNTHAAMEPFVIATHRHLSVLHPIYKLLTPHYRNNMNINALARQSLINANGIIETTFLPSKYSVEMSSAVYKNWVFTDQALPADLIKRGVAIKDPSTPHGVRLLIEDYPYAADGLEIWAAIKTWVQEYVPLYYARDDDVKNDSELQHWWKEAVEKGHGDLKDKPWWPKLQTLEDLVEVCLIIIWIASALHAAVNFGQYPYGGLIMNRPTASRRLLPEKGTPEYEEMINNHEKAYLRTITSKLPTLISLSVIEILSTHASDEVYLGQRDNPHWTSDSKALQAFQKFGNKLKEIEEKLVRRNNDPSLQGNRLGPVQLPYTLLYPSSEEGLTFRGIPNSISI
Method: In vitro anti-LOX activities were evaluated using soybean lipoxygenase isoenzyme-1 (SLOX-1), a commonly used model for mammalian LOXs.
An in vitro study was conducted following a previously reported method. The tested compounds were dissolved in DMSO (100 µM) and incubated at room temperature with 0.1 mL of sodium linoleate as the substrate and 0.2 mL of soybean lipoxygenase solution in Tris-HCl buffer (pH 9.0).

[2] = In vitro inhibition of linoleic acid lipid peroxidation (AAPH); conditions: 100 μM; anti-lipid peroxidation
From the text: In the present study, the aim was to evaluate the anti-lipid peroxidation activities of the synthesized compounds 5a–i, 6a–i, 9a–i, and 11 and compare their efficacy to that of Trolox, a well-known antioxidant. Using the water-soluble compound 2,2′-azobis(2-amidinopropane) hydrochloride (AAPH), peroxyl radicals are generated through spontaneous thermal decomposition in vitro. This experimental setup imitated the lipid peroxidation processes occurring in cells due to radical activity allowing the investigation of the effectiveness of the tested compounds under conditions resembling cellular oxidative stress.
An in vitro assay was performed following previously established protocols. The compound 2,2′-Azobis(2-methylpropionamidine) dihydrochloride (AAPH) was used as a controlled source of thermally generated alkylperoxy free radicals. The formation of conjugated diene hydroperoxides through the oxidation of sodium linoleate in an aqueous dispersion at 37 °C was measured by monitoring absorbance at 234 nm. The results were compared with the reference compound, Trolox (93%) (Table 6).

| Albumin (inhibition of albumin denaturation) (bovine serum albumin) | LOX Inh. IC50 [1] | IC50 [1] | Compound | AAPH Inh. at 100 μΜ [2] |
| --- | --- | --- | --- | --- |
| – | – | 80 µM | CC(=O)c1ccc(NC(=O)COC(=O)/C=C/c2cc3ccccc3o2)cc1 [Compound 5f, 2-((4-Acetylphenyl)amino)-2-oxoethyl (E)-3-(benzofuran-2-yl)acrylate] | 39% |
| – | no | – | CC(=O)c1ccc(NC(=O)COC(=O)/C(=C/c2cccs2)c2ccccc2)cc1 [Compound 5i, 2-((4-Acetylphenyl)amino)-2-oxoethyl (E)-2-phenyl-3-(thiophen-2-yl)acrylate] | 77% |
| – | – | 33 µM | CC(=O)c1ccc(NC(=O)COC(=O)/C(=C/c2cccc3ccccc23)c2ccccc2)cc1 [Compound 5h, 2-((4-Acetylphenyl)amino)-2-oxoethyl (E)-3-(naphthalen-1-yl)-2-phenylacrylate] | 75.8% |
| – | no | – | CC(=O)c1ccc(NC(=O)COC(=O)/C(=C/c2ccccc2)c2ccccc2)cc1 [Compound 5g, 2-((4-Acetylphenyl)amino)-2-oxoethyl (E)-2,3-diphenylacrylate] | 94.7% |

More lines, now with the values behind:

| Compound | Albumin (inhibition of albumin denaturation) (bovine serum albumin) | LOX Inh. IC50 [1] | IC50 [1] | AAPH Inh. at 100 μΜ [2] |
| --- | --- | --- | --- | --- |
| CC(=O)Oc1ccccc1C(=O)O [Acetylsalicylic acid, acetylsalicylic acid, reference compound] | 31% | – | – | – |
| CC(=O)c1ccc(NC(=O)COC(=O)/C=C/c2cc3ccccc3s2)cc1 [Compound 5e, 2-((4-Acetylphenyl)amino)-2-oxoethyl (E)-3-(benzo[b]thiophen-2-yl)acrylate] | – | no | – | no |
| CC(=O)c1ccc(NC(=O)COC(=O)C=Cc2ccccc2)cc1 [Compound 5a, 2-((4-Acetylphenyl)amino)-2-oxoethyl Cinnamate] | – | no | – | 31.9% |
| CC(=O)c1ccc(NC(=O)COC(=O)/C=C/c2ccco2)cc1 [Compound 5d, 2-((4-Acetylphenyl)amino)-2-oxoethyl (E)-3-(furan-2-yl)acrylate] | – | no | – | no |
| CC(=O)c1ccc(NC(=O)COC(=O)/C=C/c2cccc3ccccc23)cc1 [Compound 5b, 2-((4-Acetylphenyl)amino)-2-oxoethyl (E)-3-(naphthalen-1-yl)acrylate] | – | – | 57.5 µM | inactive and no |
| CC(=O)c1ccc(NC(=O)COC(=O)/C=C/c2cccs2)cc1 [Compound 5c, 2-((4-Acetylphenyl)amino)-2-oxoethyl (E)-3-(thiophen-2-yl)acrylate] | – | no | – | 29% |
| O=C(O)/C=C/c1ccccc1 [Cinnamic acid] | – | – | – | 78% |
| Cc1c(C)c2c(c(C)c1O)CCC(C)(C(=O)O)O2 (stereo not drawn) [Trolox, reference compound] | – | – | – | 93% |
